Test results from US20050226878A1, “Therapeutic combinations and methods including IRM compounds” (3M Innovative Properties Company, priority 2003, published 2005).

What was measured:
[1] = test system: Peripheral blood mononuclear cells (PBMCs); assay: Example 1: TNF-α secreted by PBMCs treated with IRM1 after dexamethasone pre-incubation (ELISA); format: cell-based, human; conditions: IRM1 1 μM, no dexamethasone, 24 hours
Source text: (§1) Whole blood from healthy human donors was collected by venipuncture into EDTA vacutainer tubes (Becton Dickinson Labware, Lincoln Park, N.J.). Peripheral blood mononuclear cells (PBMCs) are separated from whole blood by density gradient centrifugation using HISTOPAQUE-1077 (Sigma-Aldrich Chemical Co., St. Louis, Mo.). The PBMCs are washed twice with Hank's Balanced Salts Solution (Celox Laboratories, Inc., Hopkins, Minn.) and then are suspended at 3-4×10^6 cells/mL in RPMI complete culture medium (Celox Laboratories, Inc., Hopkins, Minn.). The PBMC suspension was added to 48 well flat bottom sterile tissue culture plates (Becton Dickinson Labware, Lincoln Park, N.J.) containing an equal volume of RPMI complete media containing dexamethasone (Sigma Chemical Co., St. Louis, Mo.) at one of the dexamethasone concentrations indicated in Table 2. After one hour, IRMI was added to a final concentration of 1 μM, and then incubated at 37° C. for an additional 24 hours. Following incubation the cells were centrifuged for 5-10 minutes at 1000 rpm (˜200×g) at 4° C. […] The samples were analyzed for IFN-α and TNF-α secreted into the culture medium. The concentration of secreted IFN-α was determined by ELISA using a Human Multi-Species kit (PBL Biomedical Laboratories, Piscataway, N.J.). […]

[2] = test system: Peripheral blood mononuclear cells (PBMCs); assay: Example 1: IFN-α secreted by PBMCs treated with IRM1 after dexamethasone pre-incubation (ELISA); format: cell-based, human; conditions: IRM1 1 μM, no dexamethasone, 24 hours
Source text: as §1

PBMCs [3] = assay: Example 6: IFN-α induction by PBMCs with anti-TNF antibody or isotype control (ELISA, FIG. 1); format: cell-based, human; conditions: for IFN-α produced in combination with anti-TNF antibody versus IRM alone: IRM 3 μM + 1 μg/mL anti-TNF antibody, FIG. 1B versus FIG. 1A
Procedure: (§2) Whole blood from healthy human donors was collected by venipuncture into EDTA vacutainer tubes (Becton Dickinson Labware, Lincoln Park, N.J.). […] The PBMCs are washed twice with Phosphate Buffered Saline (PBS, Biosource, Camarillo, Calif.) and then are suspended at 5×10^6 cells/mL in RPMI complete culture medium (Celox Laboratories, Inc., Hopkins, Minn.). One milliliter of the PBMC suspension and 1.5 milliliter of RPMI complete media were added to each well of a 24 well flat bottom sterile tissue culture plate (Becton Dickinson Labware, Lincoln Park, N.J.) for a final PBMC concentration of 2×10^6 cells/mL.
(§3) Following incubation the cells were centrifuged for 5-10 minutes at 1000 rpm (˜200×g) at 4° C. The cell-free culture supernatant was removed with a sterile polypropylene pipette and transferred to sterile polypropylene tubes. Samples were maintained at −70° C. until analysis.
(§4) The samples were analyzed for IFN-α, TNF-α and IFN-γ secreted into the culture medium. The concentration of secreted IFN-α was determined by ELISA using a Human Multi-Species kit (PBL Biomedical Laboratories, Piscataway, N.J.). Secreted TNF-α and IFN-γ were analyzed using a human-specific TNF-α BV™ or IFN-γ BV™ immunoassay (BioVeris Corp., Gaithersburg, Md.).

PBMCs [4] = assay: Example 6: TNF-α induction by PBMCs with anti-TNF antibody or isotype control (immunoassay, FIG. 2); format: cell-based, human; conditions: for TNF-α induction: IRM 3 μM alone (isotype control antibody), FIG. 2A; for TNF-α induced in combination with anti-TNF antibody: IRM 3 μM + 1 μg/mL anti-TNF antibody, FIG. 2B
Procedure: as §2, §3, §4

Human PBMCs [5] = assay: Example 4: TNF-α secreted by PBMCs with or without anti-TNF monoclonal antibody (ELISA); format: cell-based; conditions: IRM2 1.0 μg/mL, LPS 0.1 μg/mL, 24 hours
Procedure: (§5) Human PBMCs were collected and prepared as described in Example 1. The cells were incubated with an anti-TNF monoclonal antibody (mouse anti-human TNF, Promega Corp., Madison, Wis.). After one hour, the cells were treated with IRM compound, LPS, or left unstimulated, and then incubated for an additional 24 hours.
(§6) Secreted TNF-α and IL-6 were assayed by ELISA (Biosource International, Inc., Camarillo, Calif.). Results are expressed in pg/mL for each cytokine.

male CFW mice = assay: Example 3: serum TNF in mice challenged with IRM2 after oral dexamethasone (ELISA); format: in vivo; conditions: IRM2 10 mg/kg, no dexamethasone
Procedure: A dexamethasone solution was prepared in saline and administered orally (3 mg/kg) to male CFW mice (Charles River Laboratories, Inc., Wilmington, Mass.) once or once daily for five days. Thirty minutes after the final administration of dexamethasone, the mice were challenged with a solution of IRM2 prepared in saline to provide a dose of 10 mg/kg. The mice were bled either 2 hours or 3 hours after being challenged with IRM2. Serum samples were analyzed by for TNF by ELISA as described in Example 1.

Human PBMCs [6] = assay: Example 4: IFN secreted by PBMCs with or without anti-TNF monoclonal antibody (virus neutralization bioassay, A549 cells/encephalomyocarditis virus); format: cell-based; conditions: IRM2 1.0 μg/mL, LPS 0.1 μg/mL, 24 hours
Procedure: as §5
Secreted IFN was assayed using a virus neutralization bioassay using A549 human lung carcinoma cells challenged with encephalomyocarditis. The details of the bioassay method have been described by G. L. Brennan and L. H. Kronenberg in “Automated Bioassay of Interferons in Micro-test Plates”, Biotechniques, June/July, 78, 1983, incorporated herein by reference. Briefly stated the method is as follows: A549 cells are incubated with dilutions of samples or a standard interferon at 37° C. for 24 hours. The incubated cells are then infected with an inoculum of encephalomyocarditis virus. The infected cells are incubated for an additional 24 hours at 37° C. before evaluating for viral cytopathic effect. The viral cytopathic effect is quantified by staining with crystal violet followed by visual scoring of the plates. Results are expressed as alpha reference units/mL based on the value obtained for NIH Human Leukocyte IFN standard.

Human PBMCs [7] = assay: Example 2: TNF-α secreted by PBMCs treated with IRM compound or LPS after dexamethasone pre-incubation (ELISA); format: cell-based; conditions: IRM2 1.0 μg/mL, LPS 0.1 μg/mL, 24 hours
Procedure: Human PBMCs were collected and prepared as described in Example 1. After one hour, the cells were treated with IRM compound, LPS, or left unstimulated, and then incubated for an additional 24 hours.
Secreted TNF-α was assayed by ELISA (Biosource International, Inc., Camarillo, Calif.).

Human PBMCs [8] = assay: Example 4: IL-6 secreted by PBMCs with or without anti-TNF monoclonal antibody (ELISA); format: cell-based; conditions: IRM2 1.0 μg/mL, LPS 0.1 μg/mL, 24 hours
Procedure: as §5, §6

[9] = +Ab (anti-TNF monoclonal antibody)

CCOCc1nc2c(N)nc3ccccc3c2n1CC(C)(C)O [IRM1, 4-amino-α,α-dimethyl-2-ethoxymethyl-1H-imidazo[4,5-c]quinolin-1-ethanol]
TNF [1]: 3000 pg/mL | IFN [2]: 959 U/mL

CCc1nc2c(N)nc3ccccc3c2n1CCCCNS(C)(=O)=O [IRM8, N-[4-(4-amino-2-ethyl-1H-imidazo[4,5-c]quinolin-1-yl)butyl]methanesulfonamide]
IFN-α produced in combination with anti-TNF antibody versus IRM alone (PBMCs [3]): increased levels | IFN-α induction (PBMCs [3]; IRM 3 μM alone (isotype control antibody), FIG. 1A, compared to other IRM compounds): relatively potent inducer | TNF-α induction (PBMCs [4]): relatively poor inducer

COCCc1nc2c(N)nc3ccccc3c2n1CCOCCNC(=O)N1CCOCC1 [IRM12, N-(2-{2-[4-amino-2-(2-methoxyethyl)-1H-imidazo[4,5-c]quinolin-1-yl]ethoxy}ethyl)morpholine-4-carboxamide]
IFN-α produced in combination with anti-TNF antibody versus IRM alone (PBMCs [3]): increased levels | TNF-α induced in combination with anti-TNF antibody (PBMCs [4]): substantially limited | TNF-α induction (PBMCs [4]): significant levels

CCOCc1nc2c(N)nc3c(c2n1CC(C)(C)O)CCCC3 [IRM5, 4-amino-2-(ethoxymethyl)-α,α-dimethyl-6,7,8,9-tetrahydro-1H-imidazo[4,5-c]quinoline-1-ethanol]
IFN-α produced in combination with anti-TNF antibody versus IRM alone (PBMCs [3]): increased levels | TNF-α induced in combination with anti-TNF antibody (PBMCs [4]): substantially limited | TNF-α induction (PBMCs [4]): significant levels

Cc1nc2c(N)nc3ccccc3c2n1CC(C)(C)O [IRM2, 4-amino-α,α,2-trimethyl-1H-imidazo[4,5-c]quinoline-1-ethanol]
TNF (Human PBMCs [5]; [9]): 61 pg/mL | TNF (Human PBMCs [5]; No Ab): 1340 pg/mL | Serum TNF (male CFW mice; 2 hrs. post-challenge): 2983 pg/mL | Serum TNF (male CFW mice; 3 hrs. post-challenge): 487 pg/mL | IFN (Human PBMCs [6]; [9]): 290 U/mL | IFN (Human PBMCs [6]; No Ab): 460 U/mL | Secreted TNF-α (Human PBMCs [7]; 0 μM Dex.): 1570 pg/mL | Secreted TNF-α (Human PBMCs [7]; 0.01 μM Dex.): 775 pg/mL | Secreted TNF-α (Human PBMCs [7]; 0.1 μM Dex.): 224 pg/mL | Secreted TNF-α (Human PBMCs [7]; 1.0 μM Dex.): 191 pg/mL | IL-6 (Human PBMCs [8]; [9]): 24189 pg/mL | IL-6 (Human PBMCs [8]; No Ab): 20137 pg/mL
